According to US20020165149A1, “Mutated class II major histocompatibility proteins” (priority 2000, published 2002):
Like-named read-outs stand apart in the source and are kept apart here. No end group written: not given here. *: point of attachment. Biotin = O=C1N[C@H]2[C@H](CS[C@H]2CCCCC(=O)*)N1

Experiments:
I-A^g7 = test: Direct binding of biotinylated peptide to L-cells transfected with I-A^g7 (flow cytometry); parameters: species or system murine; conditions: 3 hours at 37° C., pH 6; streptavidin-PE detection
I-A^g7-negative L-cells = conditions: peptide 1.6 μM-50 μM, 3 hours at 37° C., pH 6
Protocol: FIG. 13 is a binding curve showing I-A^g7-positive L-cell binding to titrated amounts of B-1040-63 peptide (1.6 μM-50 μM).

Chain of I-A^g7 (as listed by the source): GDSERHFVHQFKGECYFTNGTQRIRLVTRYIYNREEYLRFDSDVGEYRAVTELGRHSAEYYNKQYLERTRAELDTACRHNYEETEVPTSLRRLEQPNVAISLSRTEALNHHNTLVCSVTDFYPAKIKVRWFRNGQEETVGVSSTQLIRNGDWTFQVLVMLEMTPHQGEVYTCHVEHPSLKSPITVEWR
Chain of I-A^g7 (P04228 24-256): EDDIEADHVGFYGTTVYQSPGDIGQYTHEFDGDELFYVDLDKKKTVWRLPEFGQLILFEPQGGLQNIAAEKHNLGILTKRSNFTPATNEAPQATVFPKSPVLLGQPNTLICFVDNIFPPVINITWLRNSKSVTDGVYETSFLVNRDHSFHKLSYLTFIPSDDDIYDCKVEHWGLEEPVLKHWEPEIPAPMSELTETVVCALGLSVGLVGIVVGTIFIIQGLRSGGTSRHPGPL

Biotin-RTRPLWVRME [Mut B-1040-63] was tested, and the “binding to L cells transfected with IA^g7” value (I-A^g7) was “bind specifically”, the “binding to untransfected (I-A^g7-negative) L cells” value (I-A^g7-negative L-cells) was “does not bind” and the “binding to untransfected (I-A^g7-negative) L cells” value (I-A^g7-negative L-cells; listed as B-104-63) was “does not occur”.
